Results from PubChem BioAssay (NCI).
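Growth conditions: 96-well plates. Treatment: test compound, 48 hours, 5 concentrations. Analysis: linear interpolation between bracketing concentrations; unreached endpoints set to highest concentration. TGI is the concentration that stops growth completely.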

What was measured:
Experiment in all cases: inhibition of tumour cell growth, NCI panel, 48 h
KM12 colon = tested on: KM12 colon
MDA-MB-231 breast = tested on: MDA-MB-231 breast
RPMI-8226 leukemia = tested on: RPMI-8226 leukemia
HL-60(TB) leukemia = tested on: HL-60(TB) leukemia
K-562 leukemia = tested on: K-562 leukemia
PC-3 prostate = tested on: PC-3 prostate
HOP-92 NSCLC = tested on: HOP-92 NSCLC
SNB-19 CNS = tested on: SNB-19 CNS
SK-MEL-5 melanoma = tested on: SK-MEL-5 melanoma
HOP-62 NSCLC = tested on: HOP-62 NSCLC
NCI/ADR-RES ovarian = tested on: NCI/ADR-RES ovarian
BT-549 breast = tested on: BT-549 breast
HT29 colon = tested on: HT29 colon
SN12C renal = tested on: SN12C renal
OVCAR-4 ovarian = tested on: OVCAR-4 ovarian
SK-MEL-2 melanoma = tested on: SK-MEL-2 melanoma
A549 NSCLC = tested on: A549 NSCLC
SF-268 CNS = tested on: SF-268 CNS
EKVX NSCLC = tested on: EKVX NSCLC
ACHN renal = tested on: ACHN renal

Row | Structure (SMILES) | TGI (KM12 colon) [µM] | TGI (MDA-MB-231 breast) [µM] | TGI (RPMI-8226 leukemia) [µM] | TGI (HL-60(TB) leukemia) [µM] | TGI (K-562 leukemia) [µM] | TGI (PC-3 prostate) [µM] | TGI (HOP-92 NSCLC) [µM] | TGI (SNB-19 CNS) [µM] | TGI (SK-MEL-5 melanoma) [µM] | TGI (HOP-62 NSCLC) [µM] | TGI (NCI/ADR-RES ovarian) [µM] | TGI (BT-549 breast) [µM] | TGI (HT29 colon) [µM] | TGI (SN12C renal) [µM] | TGI (OVCAR-4 ovarian) [µM] | TGI (SK-MEL-2 melanoma) [µM] | TGI (A549 NSCLC) [µM] | TGI (SF-268 CNS) [µM] | TGI (EKVX NSCLC) [µM] | TGI (ACHN renal) [µM]
1 | COC(=O)C1=CS/C(=C2\S[C@@H]3[C@H](S2)[C@H]2C=C[C@@H]3C2)S1 | > 100 | > 100 | > 100 | 57.9 | 18.5 | > 100 | > 100 | > 100 | > 100 | > 100 | 47.8 | > 100 | 92.6 | > 100 | > 100 | > 100 | > 100 | > 100 | – | –
2 | C=CCCC1(CC(Sc2ccccc2)P(=O)(c2ccccc2)c2ccccc2)OCCO1 (configuration not stated) | > 10 | > 10 | > 10 | > 10 | > 10 | > 10 | – | > 10 | > 10 | > 10 | > 10 | > 10 | > 10 | > 10 | > 10 | > 10 | > 10 | > 10 | > 10 | > 10
3 | CCOC(=O)c1cc2c3ccn(Cc4ccccc4)c3c3c(C)[nH]oc3c2n1 | > 100 | > 100 | > 100 | > 100 | > 100 | > 100 | – | > 100 | > 100 | > 100 | > 100 | > 100 | – | > 100 | > 100 | > 100 | > 100 | > 100 | > 100 | > 100
4 | COCc1nc2c(OC)c(-c3nc4nc(N5CCN(C)CC5)ccc4[nH]3)cc(OC)c2n1C | 61.6 | 46.4 | 59.1 | 36.2 | > 100 | 63.4 | > 100 | > 100 | – | > 100 | > 100 | > 100 | 62 | > 100 | > 100 | 41.9 | > 100 | > 100 | 81.2 | 57.4
5 | O=c1cc(N2CCCC2)[nH]c(=O)n1-c1cccc(Cl)c1 | > 100 | > 100 | > 100 | > 100 | > 100 | > 100 | > 100 | > 100 | – | > 100 | > 100 | > 100 | > 100 | > 100 | > 100 | > 100 | – | > 100 | > 100 | > 100
6 | N#CCCC(CCC#N)(CCC#N)NO | > 100 | > 100 | > 100 | > 100 | > 100 | > 100 | > 100 | > 100 | > 100 | – | > 100 | > 100 | > 100 | > 100 | – | > 100 | > 100 | > 100 | > 100 | > 100
7 | CCc1cc(Cc2cc(CC)c(NC(=O)C(=O)CC(=O)c3sc(-c4cccnc4)nc3C)c(CC)c2)cc(CC)c1NC(=O)C(=O)CC(=O)c1sc(-c2cccnc2)nc1C | > 100 | > 100 | > 100 | > 100 | > 100 | > 100 | > 100 | > 100 | > 100 | – | > 100 | > 100 | > 100 | > 100 | > 100 | > 100 | > 100 | > 100 | > 100 | > 100
8 | Clc1ccc(-c2cc3nc4ccccc4nc3o2)cc1 | > 100 | > 100 | > 100 | > 100 | > 100 | > 100 | > 100 | > 100 | > 100 | – | > 100 | > 100 | > 100 | – | > 100 | > 100 | > 100 | > 100 | > 100 | > 100
9 | CC(=O)Oc1ccc2cc(-c3ccccc3OC(C)=O)c(=O)oc2c1 | > 100 | > 100 | > 100 | 24.4 | > 100 | > 100 | – | > 100 | – | > 100 | > 100 | > 100 | > 100 | > 100 | > 100 | > 100 | > 100 | > 100 | > 100 | > 100
10 | COC(=O)c1cc2c(cc1CC(Cc1ccc3c(c1)CCCC3)C(=O)OC)CCCC2 (configuration not stated) | > 100 | > 100 | 91.4 | 29.7 | > 100 | > 100 | > 100 | > 100 | > 100 | > 100 | > 100 | > 100 | > 100 | > 100 | 71.1 | > 100 | > 100 | > 100 | – | > 100
11 | O=c1c2ccccc2nc(Cc2nc(-c3ccc(Cl)cc3)cs2)n1-c1ccc(Cl)cc1 | > 100 | > 100 | 83.9 | > 100 | > 100 | > 100 | > 100 | > 100 | > 100 | > 100 | > 100 | > 100 | > 100 | – | > 100 | > 100 | > 100 | > 100 | > 100 | > 100
12 | Cc1ccc([N+](=O)[O-])c2c(NCCC[N+](C)(C)[O-])c3ccccc3nc12 | > 21.1 | 6.28 | – | 34.5 | > 38.3 | 4.41 | 5.04 | 6.56 | 2.46 | > 41.1 | > 100 | 4.81 | 5.26 | 8.74 | 21.2 | 2.25 | 6.29 | 24.9 | 3.88 | 47.7
13 | O=C(c1ccco1)N(C(=S)OCCOc1ccccc1)c1ccccc1 | 46.2 | 30.6 | 47.2 | 47.3 | 83.4 | 57.8 | 37.5 | 59.7 | – | 32.1 | 58.6 | 43.5 | 42.1 | 39.1 | 57.3 | 41.1 | 90.2 | 35.3 | 52.4 | 53.4
14 | O=C1NC(=S)NC(=O)C1C(c1ccc(O)cc1)C1C(=O)NC(=S)NC1=O | > 100 | > 100 | > 100 | > 100 | > 100 | > 100 | > 100 | > 100 | > 100 | > 100 | > 100 | > 100 | > 100 | > 100 | > 100 | > 100 | > 100 | – | – | > 100
15 | CN(C)CCCN=c1c2ccccc2n(O)c2ccccc12 | > 100 | > 100 | > 100 | > 100 | > 100 | > 100 | > 100 | – | > 100 | > 100 | > 100 | 63.4 | 28.8 | > 100 | > 100 | > 100 | > 100 | > 100 | > 100 | > 100
16 | Cn1c([C@H](C#N)c2ncccc2[N+](=O)[O-])nc2ccccc21 | > 100 | > 100 | > 100 | > 100 | > 100 | > 100 | > 100 | > 100 | – | 67.6 | > 100 | > 100 | > 100 | – | – | > 100 | > 100 | > 100 | > 100 | > 100
17 | C1=Cc2cc3c(c4nccc(c24)N1)OCO3 | 23.6 | > 64.7 | > 65.9 | > 100 | 98.9 | > 100 | > 100 | > 34.7 | – | > 82.4 | > 67.2 | 48.8 | – | > 39.2 | > 46.6 | 36.6 | > 41.7 | 28.9 | 34 | > 34.4
18 | O=C(NC(Cc1ccccc1)(Cc1ccc(O)cn1)C(=O)O)c1ccccc1 (configuration not stated) | > 100 | > 100 | > 100 | 68.2 | > 100 | > 100 | > 100 | > 100 | > 100 | > 100 | > 100 | > 100 | > 100 | – | > 100 | > 100 | > 100 | > 100 | > 100 | > 100
19 | O=C1CC(c2cccc([N+](=O)[O-])c2)C2(C(=O)NC(=O)NC2=O)C(c2cccc([N+](=O)[O-])c2)C1 (configuration not stated) | > 100 | > 100 | > 100 | > 100 | > 100 | > 100 | > 100 | > 100 | > 100 | > 100 | > 100 | > 100 | > 100 | > 100 | > 100 | > 100 | > 100 | 84.1 | – | > 100
20 | c1ccc(CNc2nncc3[nH]cnc23)cc1 | > 100 | > 100 | > 100 | > 100 | > 100 | > 100 | > 100 | – | > 100 | > 100 | > 100 | > 100 | > 100 | > 100 | > 100 | > 100 | > 100 | – | > 100 | > 100
21 | Nc1nc(-c2ccccc2)cc(-c2ccc(OCc3ccccc3)cc2O)n1 | > 100 | > 100 | 60.9 | – | > 100 | > 100 | > 100 | > 100 | 35.5 | > 100 | > 100 | > 100 | > 100 | > 100 | > 100 | > 100 | > 100 | > 100 | > 100 | > 100
22 | NNC(=S)N/N=C(/C(=O)Nc1ccc(Cl)c(Cl)c1)C(C1OC(=O)c2ccccc21)[N+](=O)[O-] (configuration not stated) | > 100 | > 100 | > 100 | > 100 | > 100 | > 100 | > 100 | – | > 100 | > 100 | > 100 | > 100 | > 100 | > 100 | > 100 | > 100 | > 100 | > 100 | > 100 | > 100
23 | CCCc1c(O)nc(Nc2nc3ccccc3[nH]2)[nH]c1=O | > 100 | > 100 | > 100 | > 100 | > 100 | > 100 | > 100 | > 100 | > 100 | – | > 100 | > 100 | > 100 | > 100 | > 100 | > 100 | > 100 | > 100 | > 100 | > 100
24 | O=C(Nc1nnc(-c2ccc(Cl)cc2)o1)C(SC(=S)N1CCOCC1)c1ccccc1 (configuration not stated) | > 100 | > 100 | > 100 | 25.7 | > 100 | 55.1 | – | > 100 | 26.6 | > 100 | 90.7 | 62.5 | 78.3 | 42.7 | > 100 | 44.7 | 81.3 | – | 59.7 | 83.5
25 | C(/C=C/Nc1ccc(Oc2ccccc2)cc1)=Nc1ccc(Oc2ccccc2)cc1 | 30.3 | 31.1 | 54.1 | 49.7 | 55.9 | 28.4 | 51.2 | 31.3 | – | 38 | 33.5 | 29.3 | 29.7 | 27.9 | 32.8 | – | 42 | 40.7 | 34.7 | 50.9
